# In patent US7947854B2, “Bis-cationic compounds and use thereof” (The University of Sydney, priority 2003, dated 2011):
# Several values for one entry are separate records, joined by “and”; a condition that tells them apart may be missing. Equal entries are not always repeated. Where two headings read alike, the source gives them in different places.
# How the values were obtained:
# [1] = tested on: T. tonsurans; assay: Susceptibility of dermatophytes, broth microdilution NCCLS M38-P; assay type: cell-based; conditions: for MIC: Trichophyton tonsurans
# Experimental: (§1) Isolates were tested using the method described in the National Committee for Clinical Laboratory Standards (NCCLS) document M38-P for filamentous fungi, with dermatophyte specific modifications described by Fernández-Torres et al, Current topics in Medical Mycology, 14-19 Feb. 1999.
# (§2) Five dermatophyte isolates were, namely; T. rubrum, T. mentagrophytes, T. tonsurans, M. canis and M. gypseum, all of which produce lipases and some, phospholipase. These isolates were tested by the broth microdilution method according to NCCLS document M38-P, for activity against selected antifungal agents. In addition, ten randomly selected isolates of T. tonsurans were also tested. All isolates were maintained on SDA at 28° C. Candida parapsilosis (ATCC 20019) was used as the reference control is organism.
# (§3) The microdilution plates used were a single lot of RPMI 1640 basal medium (JRH bioScience Inc. Lenexa, Kans., USA) with L-glutamine and without sodium bicarbonate, buffered to pH 7.0, at 25° C., with 0.165 M (MOPS) morpholinepropanesulfonic acid (Sigma).
# (§4) Powdered drugs were dissolved in 100% dimethyl sulfoxide (DMSO), at concentrations 100 times higher than the final test concentration. All compounds were prepared in 100% (DMSO). For ITRA and TRB, two-fold drug dilutions were prepared in 100% DMSO at 100 times the final concentration, followed by further dilution 1:50 in RPMI medium, to yield 2× the final strength required for the test.
# (§5) Fungal cultures were subcultured onto Potato Dextrose Agar and grown at 28° C. for 7-10 days. Fungal suspensions were covered with 5 ml of distilled water, and then colonies were scraped off with cotton tipped swabs. The resulting mixture of conidia and hyphae elements was withdrawn, transferred to a sterile tube and then vortexed with glass beads. After the particles settled, the upper homogeneous suspension was collected and its density adjusted by a densitometer to a 0.5 McFarland standard at the wavelength of 530 nm (80-85% transmittance). These stock suspensions were then diluted 1:50 with RPMI medium to obtain final working inoculum concentration ranging from 0.3×10^4 to 9×10^4 CFU/ml. Inoculum quantification was performed by plating 100 μl of the 1:1000 dilution of the adjusted inoculum on SDA plates, incubated at 28° C., and after 7 days of incubation, the colonies were counted.
# (§6) Testing was based on NCCLS M38-P document for testing filamentous moulds. Testing was carried out in sterile 96-well flat bottomed microtitre plate. Columns 1 and 3 to 12 were filled with 100 μl of RPMI medium, leaving column 2 unfilled. Columns 1, 2 and 3 were filled with 100 μl of 2× drug concentration. Serial dilutions were then made by transferring 100 μl from column 3 to each column up to column 11, and 100 μl from column 11 was discarded. Column 12 served as drug free growth control. Finally, 100 μl of inoculum suspension was added to all wells except column 1, which acted as sterility control (Columns 1 and 12 served as sterility and growth control respectively). Plates were incubated at 28° C. for 7 days, and read at 3 days and 7 days of incubation. All testing was performed in duplicate, on three separate occasions.
# (§7) Growth in microtitre trays were read by visual inspection by using an illuminated-reversed mirror. Growth in each well was compared with the “growth control” drug free well. The MIC end point for all the drugs was chosen to be the first well with 100% growth inhibition (i.e. the lowest drug concentration inhibiting growth).
# [2] = tested on: T. rubrum; assay: as above; assay type: cell-based; conditions: for MIC: Trichophyton rubrum
# Experimental: as §1, §2, §3, §4, §5, §6, §7
# [3] = tested on: M. canis; assay: as above; assay type: cell-based; conditions: for MIC: Microsporum canis
# Experimental: as §1, §2, §3, §4, §5, §6, §7
# [4] = tested on: M. gypseum; assay: as above; assay type: cell-based; conditions: for MIC: Nannizzia gypsea
# Experimental: as §1, §2, §3, §4, §5, §6, §7
# [5] = tested on: Escherichia coli 25922; assay: In vitro antibacterial activity, NCCLS M7-A6; assay type: cell-based
# Experimental: (§8) Two bis-cationic compounds were tested for antibacterial activity. The assay used was that published by the National Committee for Clinical Laboratory Standards. 2003. Methods for Dilution Antimicrobial Susceptibility Tests for Bacteria That Grow Aerobically: Approved Standard—Sixth Edition. NCCLS document M7-A6. Villanova, Pa., USA.
# [6] = tested on: Staphylococcus aureus 25923; assay: In vitro antibacterial activity, NCCLS M7-A6; assay type: cell-based
# Experimental: as §8
# [7] = tested on: Pseudomonas ariginosa 122; assay: In vitro antibacterial activity, NCCLS M7-A6; assay type: cell-based
# Experimental: as §8
# [8] = tested on: Streptococcus pneumonia 49619; assay: In vitro antibacterial activity, NCCLS M7-A6; assay type: cell-based; conditions: Streptococcus pneumoniae
# Experimental: as §8
# [9] = tested on: MRSA (methicillin resistant S. aureus); assay: In vitro antibacterial activity, NCCLS M7-A6; assay type: cell-based; conditions: Staphylococcus aureus, read-out: MIC MRSA (methicillin resistant S. aureus)
# Experimental: as §8
# [10] = tested on: VRE (Vancomycin resistant Enterococcus); assay: In vitro antibacterial activity, NCCLS M7-A6; assay type: cell-based
# Experimental: as §8
# [11] = tested on: C. albicans (ATCC10231) phospholipases; assay: Inhibition of C. albicans phospholipases; assay type: biochemical
smiles,measurement,setting,value
"CCCC[N+](CCCC)(CCCC)CCCCCCCCCCCC[N+](CCCC)(CCCC)CCCC [1,12-Bis-(tributylammonium)dodecane dichloride]",MIC,"[1]; Table 9, read-out: MIC T. tonsurans",3.8 µg/mL and 6.2 µM
same,MIC,"[2]; Table 9, read-out: MIC T. rubrum",5.7 µg/mL and 9.4 µM
same,MIC,"[3]; Table 9, read-out: MIC M. canis",5.7 µg/mL and 9.4 µM
same,MIC,"[4]; Table 9, read-out: MIC M. gypseum",3.8 µg/mL and 6.3 µM
same,MIC,[5],13.4 µg/mL and 22 µM
same,MIC,[6],3.3 µg/mL and 5.5 µM
same,MIC,[7],48 µg/mL and 80 µM
same,MIC,[8],0.73 µg/mL and 1.2 µM
same,MIC,[9],3.3 µg/mL and 5.5 µM
same,MIC,[10],1.6 µg/mL and 2.7 µM
"CCCC[N+](CCCC)(CCCC)CCCCCCCCCCCC[N+](CCCC)(CCCC)CCCC [Compound 3, 1,12-bis(tributylammonium)do-decane dibromide]","MIC Range, T. tonsurans","[1]; 100% growth inhibition, 28° C.",1.9 to 7.6 µg/mL
same,MIC,"[1]; 100% growth inhibition, 28° C., read-out: MIC GM, T. tonsurans",3.38 µg/mL
same,MIC,"[1]; 100% growth inhibition, 28° C., read-out: MIC Mean, T. tonsurans",3.8 µg/mL
same,"MIC Range, T. rubrum","[2]; 100% growth inhibition, 28° C.",3.8 to 7.6 µg/mL
same,MIC,"[2]; 100% growth inhibition, 28° C., read-out: MIC GM, T. rubrum",5.37 µg/mL
same,MIC,"[2]; 100% growth inhibition, 28° C., read-out: MIC Mean, T. rubrum",5.7 µg/mL
same,"MIC Range, M. canis","[3]; 100% growth inhibition, 28° C.",3.8 to 7.6 µg/mL
same,MIC,"[3]; 100% growth inhibition, 28° C., read-out: MIC GM, M. canis",6.03 µg/mL
same,MIC,"[3]; 100% growth inhibition, 28° C., read-out: MIC Mean, M. canis",6.33 µg/mL
same,"MIC Range, M. gypseum","[4]; 100% growth inhibition, 28° C.",1.9 to 7.6 µg/mL
same,MIC,"[4]; 100% growth inhibition, 28° C., read-out: MIC GM, M. gypseum",3.8 µg/mL
same,MIC,"[4]; 100% growth inhibition, 28° C., read-out: MIC Mean, M. gypseum",4.75 µg/mL
same,"inhibition of C. albicans (ATCC10231) phospholipases, in words",[11],inhibits
